In patent publication EP0387830A2, “The anthracycline substances, microorganisms producing the same and a process for preparing the substances” (YAMANOUCHI PHARMACEUTICAL CO. LTD., priority 1989, dated 1990):
≈ marks a conversion by molar mass, not a printed value.

Assays:
P 388 = experiment: Cytotoxicity on tumor cells in vitro (trypan blue exclusion, cell growth inhibition); assay type: cell-based; conditions: tartrates dissolved in saline, 1 x 10⁵ cells/mℓ, 37 °C for 3 days, RPMI-1640 + 5 % fetus calf serum + 5 µM 2-hydroxyethyldisulfide; for IC50: Mus musculus, P388, 72 h, read-out: IC₅₀ P388
Method: (§1) To each 1 mℓ of L 1210* and P 388** culture medium in a concentration of 1 x 10⁵ cells/mℓ, 4 µℓ of each solution of the tartrates of the anthracycline compounds according to the present invention which was dissolved in saline in different concentrations was added respectively and incubated at 37 °C for 3 days in a CO₂ incubator. Then, numbers of surviving cells were counted by trypan blue exclusion. The cytotoxic activity was determined by calculating the cell growth inhibitory ratio of the numbers of surviving cells to numbers of cells of a control to which no compound was added in the different concentrations and by plotting them on a graph. Note : Medium used: * : RPMI-1640 + 10 % new born calf serum **: RPMI-1640 + 5 % fetus calf serum + 5 µM 2-hydroxyethyldisulfide

[1] = system: P388 adriamycin resistant cell; experiment: as above; assay type: cell-based; conditions: Mus musculus, P388, 72 h, tartrates dissolved in saline; 37 °C for 3 days; read-out: IC₅₀ P388 adriamycin resistant cell
Method: as §1

[2] = Solubility in solvents (physicochemical properties)
L 1210 = experiment: Cytotoxicity on tumor cells in vitro (trypan blue exclusion, cell growth inhibition); assay type: cell-based; conditions: tartrates dissolved in saline, 1 x 10⁵ cells/mℓ, 37 °C for 3 days, RPMI-1640 + 10 % new born calf serum
Method: as §1

P-388 tumor cells = experiment: Antitumor activity to P388 on animal (prolongation of life); conditions: for Median survival days: BDFI/SLC male mice, control 13.0; for T/C: ratio of median survival days to control; for Survival rate (after 22 days): survivors - animals in group

Solubility in solvents ([2]; in hexane)	Solubility in solvents ([2]; in methanol, ethanol, acetone, ethylacetate, benzene, toluene and chloroform)	Solubility in solvents ([2]; in water)	Compound	IC50 (P 388) [µg/mL]	IC50 [1] [µg/mL]	IC50 (L 1210; Mus musculus, L1210, 72 h, read-out: IC₅₀ L1210) [µg/mL]	IC₅₀ L1210 (L 1210) [µg/mL]	IC₅₀ P388 (P 388) [µg/mL]	Median survival days (P-388 tumor cells; 0.50 × 5 mg/kg) [days]	T/C (P-388 tumor cells; 0.50 × 5 mg/kg) [%]	Survival rate (after 22 days) (P-388 tumor cells; 0.50 × 5 mg/kg)	Median survival days (P-388 tumor cells; 1.0 × 5 mg/kg) [days]	T/C (P-388 tumor cells; 1.0 × 5 mg/kg) [%]	Survival rate (after 22 days) (P-388 tumor cells; 1.0 × 5 mg/kg)
insoluble	soluble	difficult to be dissolved	COc1cccc2c1C(=O)c1c(cc3c(c1O)C(OC1OC(C)C(OC)C(O)C1OC)CC(C)(OC(C)=O)C3OC1OC(C)C(N(C)C)C(C)(O)C1O)C2=O (stereo not drawn) [YL-01641P-C₁]	0.18	0.33 (≈ 0.426 µM)									
			COc1cccc2c1C(=O)c1c(O)c3c(c(O)c1C2=O)C[C@@](O)(C(=O)CO)C[C@@H]3O[C@H]1C[C@H](N)[C@H](O)[C@H](C)O1 [adriamycin]	0.03		0.087	0.090	0.023						
			CO[C@@]12[C@H](COC(N)=O)C3=C(C(=O)C(C)=C(N)C3=O)N1C[C@@H]1N[C@@H]12 [mitomycin C]						22.0	169	2 - 8	> 22.0	> 169	8 - 8
